{"source": "patent US4130647A", "about": "“Methods for treating congestive heart failure and ischemic heart disease” (priority 1977, dated 1978)", "key": {"[1]": {"system": "patients with congestive heart failure", "assay": "Hemodynamic effects of oral trimazosin in congestive heart failure (Example 2)", "assay_type": "in vivo, human", "experimental": "Studies were performed in male patients with clinical and radiographic evidence of congestive heart failure due to ischemic or primary cardiomyopathy. To be eligible for the study patients had to have supine systolic blood pressure of at least 100 mm. Hg. and a supine resting cardiac index below 2.5 L/min./m^2, as measured by the non-invasive carbon dioxide rebreathing method [Franciosa, et al., J. Lab. Clin. Med., 88, 662 (1976) and Franciosa, et al., Circulation, 55, 449 (1977)]. Six patients met these criteria and were selected for the study.\nAfter obtaining written informed consent, patients were entered into a 2 day dose finding period during which single daily doses of trimazosin were given and blood pressure and heart rate monitored for 4 hours. On day one 100 mg. was given; if no response or side effects occurred, 200 mg. was given the next day. For purposes of this study a response was defined as a fall in supine blood pressure to a level equal to 0.2 × control systolic pressure +76 mm. Hg. This formula was arbitrarily chosen so that patients with control systolic blood pressure as low as 100 mm. Hg. would be included, and their pressures could be reduced to 96 mm. Hg. Upon completion to the dose finding period, no trimazosin was given for the next 24 hours to allow for washout of previous doses. After this, hemodynamic studies were performed employing the predetermined doses; if 200 mg. of trimazosin was ineffective, 300 mg. was given for hemodynamic studies.\n(§1) On the day of hemodynamic studies, diuretics and other vasodilators were withheld but maintenance digitalis doses were given in order to obtain a reasonably steady hemodynamic state. Procainamide was given to the one patient who had been taking it chronically. Right heart catheterization was performed using a triple lumen Swan-Ganz catheter which was inserted percutaneously via an antecubital or femoral vein and positioned with its tip in the pulmonary artery and the proximal lumen in the right atrium [Swan, et al,. N. Engl. J. Med., 283, 447 (1970)]. A brachial artery was cannulated with a short teflon catheter inserted over an 18-guage thin walled needle. Catheters were connected to P23Db Statham pressure transducers and pressures recorded on a Hewlett-Packard multichannel physiological recorder. Transducers were positioned at the mid-chest level with the patient supine, and all measurements were made in this position. Heart rate was monitored from the electrocardiogram. Cardiac outputs were measured by the dye-dilution method using indocyanine green injected into the pulmonary artery and sampled from the brachial artery through a Gilford densitometer connected to the recorder. Forearm venous capacitance was measured by occlusion plethysmography employing a Whitney mercury-in-rubber resistance guage [Cohen, et al., Clin. Sci., 30, 267 (1966) and Mason, et al., Circulation, 32, 756 (1965)]. For this determination, the forearm was elevated and suspended in a cradle. The venous occluding cuff was inflated to 30 mm. Hg. and forearm girth allowed to equilibrate over 2-3 minutes. The change in forearm girth at this point was taken as a measure of venous capacitance.\n(§2) Hemodynamic measurements were made before and at hourly intervals for 4 hours after administration of trimazosin. Pulmonary wedge pressure was taken as occluded pulmonary arterial pressure or pulmonary arterial diastolic pressure. These were not interchanged and only one was used in any given patient. Systemic vascular resistance was calculated as the difference between means systemic arterial and right atrial pressures divided by cardiac output. Pulmonary vascular resistance was calculated as mean pulmonary arterial pressure divided by cardiac output. […]"}, "[2]": {"system": "forearm veins of patients with congestive heart failure", "assay": "Forearm venous capacitance by occlusion plethysmography after trimazosin (Example 2)", "assay_type": "in vivo, human", "experimental": "as §1\nas §2, with “Pulmonary wedge pressure was taken as occluded pulmonary arterial pressure or pulmonary arterial diastolic pressure. These were not interchanged and only one was used in any given patient.” left out"}, "[3]": {"assay": "clinical", "conditions": "human, po"}, "[4]": {"conditions": "2 hours after trimazosin, individual patients"}}, "note": "Values joined by “and” are separate entries in the source; they are usually repeats but may differ in a detail not shown here. Equal entries are not always repeated."}
{"smiles": "COc1cc2c(N)nc(N3CCN(C(=O)OCC(C)(C)O)CC3)nc2c(OC)c1OC", "note": "[trimazosin, 2-hydroxy-2-methylpropyl 4-(4-amino-6,7,8-trimethoxy-2-quinazolinyl)-1-piperazinecarboxylate]", "values": [{"measurement": "cardiac index, patients not responding", "setting": "[1]; 2 hours after trimazosin", "value": "failed to increase in 2 patients"}, {"measurement": "pulmonary arterial pressures, patients responding", "setting": "[1]; 2 hours after trimazosin", "value": "fell in every patient"}, {"measurement": "Cardiac Index", "setting": "[1]; [4]", "value": "1.86 L/min./m^2 and 1.14 L/min./m^2 and 2.36 L/min./m^2 and 1.74 L/min./m^2 and 2.96 L/min./m^2 and 2.67 L/min./m^2"}, {"measurement": "Mean Pulmonary Arterial Pressure", "setting": "[1]; [4]", "value": "15 mm.Hg. and 39 mm.Hg. and 29 mm.Hg. and 49 mm.Hg. and 31 mm.Hg. and 40 mm.Hg."}, {"measurement": "Mean Systemic Arterial Pressure", "setting": "[1]; [4]", "value": "82 mm.Hg. and 78 mm.Hg. and 88 mm.Hg. and 87 mm.Hg. and 73 mm.Hg."}, {"measurement": "Pulmonary Vascular Resistance", "setting": "[1]; [4]", "value": "4 units and 18 units and 6 units and 15 units and 8 units"}, {"measurement": "Pulmonary Wedge Pressure", "setting": "[1]; [4]", "value": "3 mm.Hg. and 28 mm.Hg. and 23 mm.Hg. and 37 mm.Hg. and 18 mm.Hg. and 34 mm.Hg."}, {"measurement": "Systemic Vascular Resistance", "setting": "[1]; [4]", "value": "23 units and 31 units and 16 units and 24 units and 15 units and 12 units"}, {"measurement": "Heart Rate, mean", "setting": "[1]; 2 hours after trimazosin, mean dose 183.3 mg., control 88.0, ns", "value": 85.0, "unit": "beats/min."}, {"measurement": "right atrial pressure", "setting": "[1]; 2 hours after trimazosin, before 11.3 ± 2.1", "value": "8.7 ± 1.6", "unit": "mm. Hg."}, {"measurement": "Cardiac Index, mean", "setting": "[1]; 2 hours after trimazosin, control 1.76, ns", "value": 2.12, "unit": "L/min./m^2"}, {"measurement": "Pulmonary Vascular Resistance, mean", "setting": "[1]; 2 hours after trimazosin, control 15.8, P <0.05", "value": 9.5, "unit": "units"}, {"measurement": "Systemic Vascular Resistance, mean", "setting": "[1]; 2 hours after trimazosin, control 27.3, ns", "value": 20.2, "unit": "units"}, {"measurement": "Pulmonary Wedge Pressure, mean", "setting": "[1]; 2 hours after trimazosin, control 30.7, P <0.01", "value": 23.8, "unit": "mm.Hg."}, {"measurement": "Mean Pulmonary Arterial Pressure, mean", "setting": "[1]; 2 hours after trimazosin, control 40.7, P <0.01", "value": 33.8, "unit": "mm.Hg."}, {"measurement": "Mean Systemic Arterial Pressure, mean", "setting": "[1]; 2 hours after trimazosin, control 91.2, P <0.05", "value": 82.5, "unit": "mm.Hg."}, {"measurement": "pulmonary wedge pressure persistence", "setting": "[1]; 4 hours after trimazosin", "value": "still significantly below control at 4 hours"}, {"measurement": "Heart Rate", "setting": "[1]; T = 2 hours after trimazosin (100-300 mg.), individual patients", "value": "96 beats/min. and 84 beats/min. and 75 beats/min. and 81 beats/min. and 78 beats/min."}, {"measurement": "left ventricular function curve shift upward and leftward", "setting": "[1]; after trimazosin", "value": "Only one patient failed to shift their left ventricular function curve upward and leftward"}, {"measurement": "stroke volume", "setting": "[1]; after trimazosin", "value": "stroke volume was increased"}, {"measurement": "time of maximal increase of cardiac index", "setting": "[1]; after trimazosin", "value": 1, "unit": "h"}, {"measurement": "time of maximal reduction of pulmonary wedge pressure", "setting": "[1]; after trimazosin", "value": 2, "unit": "h"}, {"measurement": "time of peak decline of mean systemic arterial pressure", "setting": "[1]; after trimazosin", "value": 1.5, "unit": "h"}, {"measurement": "time of peak effects of the various hemodynamic parameters", "setting": "[1]; after trimazosin", "value": "1 to 3", "unit": "h"}, {"measurement": "diastolic pressure at peak effect", "setting": "[1]; after trimazosin, control 74.8 ± 4.2, ns", "value": "67.0 ± 2.9", "unit": "mm. Hg."}, {"measurement": "systolic arterial pressure at peak effect", "setting": "[1]; after trimazosin, control 128.3, p<0.05", "value": "116.8 ± 9.2", "unit": "mm. Hg."}, {"measurement": "heart rate change", "setting": "[1]; following trimazosin", "value": "the decrease achieved statistical significance"}, {"measurement": "right atrial pressure and forearm veins, patients responding", "setting": "[1]; following trimazosin", "value": "Right atrial pressure fell and forearm veins dilated in every patient"}, {"measurement": "right atrial pressure", "setting": "[1]; one patient with normal pulmonary wedge pressure, fell from 5", "value": 3, "unit": "mm. Hg."}, {"measurement": "tachycardia", "setting": "[1]; patients with congestive heart failure", "value": "did not produce tachycardia"}, {"measurement": "cardiac output", "setting": "[1]; patients with normal control cardiac output or normal control pulmonary wedge pressure", "value": "appeared to reduce cardiac output"}, {"measurement": "increase in forearm venous capacitance", "setting": "[2]; 2 hours after trimazosin", "value": 35, "unit": "%"}, {"measurement": "forearm venous capacitance", "setting": "[2]; 2 hours after trimazosin, before 0.83 ± 0.18", "value": "1.12 ± 0.22", "unit": "ml./100 gm."}, {"measurement": "increase in forearm venous capacitance", "setting": "[2]; one patient with normal pulmonary wedge pressure", "value": 50, "unit": "%"}, {"measurement": "half-life", "setting": "[3]; in vivo", "value": "3 to 6", "unit": "h"}, {"measurement": "Tmax", "setting": "[3]; plasma", "value": "1 to 2", "unit": "h"}]}
